Data: ChEMBL document CHEMBL4411300 (Eur J Med Chem, 2019)
Calls of active or inactive are those of the source. No cut-off for these calls is given here.

Columns and labels:
[1] = Selectivity index, ratio of IC50 for African green monkey Vero cells to IC50 for Trypanosoma cruzi IRHOD/CO/2008/SN3 DTU 1 epimastigotes; assay type: toxicity; conditions: read-out: Ratio IC50
[2] = Selectivity index, ratio of IC50 for African green monkey Vero cells to IC50 for Trypanosoma cruzi TINF/CH/1956/Tulahuen DTU 6 amastigotes infected in African green monkey Vero cells; assay type: toxicity; conditions: read-out: Ratio IC50
[3] = Toxicity in Balb/c mouse assessed as death at 20 mg/kg, po once daily for 5 consecutive days starting from day 10 post infection; assay type: organism-based; conditions: in vivo
Trypanosoma cruzi [4] = test: (§1) Antitrypanosomal activity against Trypanosoma cruzi MHOM/Pe/2011/Arequipa DTU 5 trypomastigotes infected in Balb/c mouse assessed as reduction in Ig-G level in serum at 20 mg/kg, po pretreated once daily for 5 consecutive days starting from day 10 post infection followed by cyclophosphamide-induced immunosuppression on day 100 post infection every 4 days for a maximum of 3 doses measured on day 127 post infection by ELISA; assay type: functional, organism-based
Trypanosoma cruzi [5] = test: Antitrypanosomal activity against Trypanosoma cruzi MHOM/Pe/2011/Arequipa DTU 5 trypomastigotes infected in Balb/c mouse assessed as reduction in splenomegaly at 20 mg/kg, po once daily for 5 consecutive days starting from day 10 post infection measured on day 127 post infection; assay type: functional, organism-based
Trypanosoma cruzi [6] = test: Antitrypanosomal activity against Trypanosoma cruzi MHOM/Pe/2011/Arequipa DTU 5 trypomastigotes infected in Balb/c mouse assessed as reduction in splenomegaly at 20 mg/kg, po once daily for 5 consecutive days starting from day 75 post infection measured on day 127 post infection; assay type: functional, organism-based
Trypanosoma cruzi [7] = test: Antitrypanosomal activity against Trypanosoma cruzi MHOM/Pe/2011/Arequipa DTU 5 epimastigotes assessed as change in mitochondrial membrane potential at IC25 after 72 hrs by Rho123 staining based flow cytometry relative to control; assay type: functional
Trypanosoma cruzi [8] = test: Induction of […] Trypanosoma cruzi MHOM/Pe/2011/Arequipa DTU 5 epimastigotes assessed as inhibition of DNA and RNA levels at IC25 after 72 hrs by acridine orange staining based flow cytometry relative to control; assay type: functional
[9] = target: Superoxide dismutase [Cu-Zn] (Homo sapiens, UniProt P00441); test: Inhibition of human erythrocyte CuZn-SOD by UV-Visible spectrophotometric method
[10] = Nephrotoxicity in Balb/c mouse infected with Trypanosoma cruzi MHOM/Pe/2011/Arequipa DTU 5 trypomastigotes assessed as decrease in serum urea level at 20 mg/kg, po once daily for 5 consecutive days starting from day 10 post infection measured on day 16 post infection relative to control; assay type: toxicity, organism-based; design: scale not given: the % may be the effect or the level left; conditions: in vivo
[11] = Nephrotoxicity in Balb/c mouse infected with Trypanosoma cruzi MHOM/Pe/2011/Arequipa DTU 5 trypomastigotes assessed as decrease in serum urea level at 20 mg/kg, po once daily for 5 consecutive days starting from day 75 post infection measured on day 81 post infection relative to control; assay type: toxicity, organism-based; design: scale not given: the % may be the effect or the level left; conditions: in vivo
[12] = Nephrotoxicity in Balb/c mouse infected with Trypanosoma cruzi MHOM/Pe/2011/Arequipa DTU 5 trypomastigotes assessed as decrease in serum urea level at 20 mg/kg, po once daily for 5 consecutive days starting from day 75 post infection measured on day 127 post infection relative to control; assay type: toxicity, organism-based; design: scale not given: the % may be the effect or the level left; conditions: in vivo
[13] = Nephrotoxicity in Balb/c mouse infected with Trypanosoma cruzi MHOM/Pe/2011/Arequipa DTU 5 trypomastigotes assessed as decrease in serum uric acid level at 20 mg/kg, po once daily for 5 consecutive days starting from day 10 post infection measured on day 16 post infection relative to control; assay type: toxicity, organism-based; design: scale not given: the % may be the effect or the level left; conditions: in vivo
[14] = Nephrotoxicity in Balb/c mouse infected with Trypanosoma cruzi MHOM/Pe/2011/Arequipa DTU 5 trypomastigotes assessed as serum uric acid level at 20 mg/kg, po once daily for 5 consecutive days starting from day 10 post infection measured on day 127 post infection (reference value: 4 mg/dl); assay type: toxicity, organism-based; conditions: in vivo
[15] = Nephrotoxicity in Balb/c mouse infected with Trypanosoma cruzi MHOM/Pe/2011/Arequipa DTU 5 trypomastigotes assessed as decrease in serum uric acid level at 20 mg/kg, po once daily for 5 consecutive days starting from day 75 post infection measured on day 81 post infection relative to control; assay type: toxicity, organism-based; design: scale not given: the % may be the effect or the level left; conditions: in vivo
[16] = (§2) Cardiotoxicity in Balb/c mouse infected with Trypanosoma cruzi MHOM/Pe/2011/Arequipa DTU 5 trypomastigotes assessed as change in ratio of creatine kinase in muscle to brain at 20 mg/kg, po once daily for 5 consecutive days starting from day 10 post infection measured on day 16 post infection by biochemical analysis (reference value: 535 U/L); assay type: toxicity, organism-based; conditions: in vivo
[17] = as §2, with “127” for “16”, “496” for “535”; assay type: toxicity, organism-based; conditions: in vivo
[18] = as §2, with “75” for “10”, “127” for “16”, “infection” for “infection by biochemical analysis”, “538” for “535”; assay type: toxicity, organism-based; conditions: in vivo
[19] = as §2, with “serum LDH level” for “ratio of creatine kinase in muscle to brain”, “127” for “16”, “2761” for “535”; assay type: toxicity, organism-based; conditions: in vivo
[20] = (§3) Hepatotoxicity in Balb/c mouse infected with Trypanosoma cruzi MHOM/Pe/2011/Arequipa DTU 5 trypomastigotes assessed as increase in ratio of serum AST to GOT level at 20 mg/kg, po once daily for 5 consecutive days starting from day 10 post infection measured on day 127 post infection by biochemical analysis relative to control; assay type: toxicity, organism-based; conditions: in vivo
[21] = Hepatotoxicity in Balb/c mouse infected with Trypanosoma cruzi MHOM/Pe/2011/Arequipa DTU 5 trypomastigotes assessed as increase in total bilirubin level at 20 mg/kg, po once daily for 5 consecutive days starting from day 10 post infection measured on day 16 post infection relative to control; assay type: toxicity, organism-based; conditions: in vivo
[22] = Hepatotoxicity in Balb/c mouse infected with Trypanosoma cruzi MHOM/Pe/2011/Arequipa DTU 5 trypomastigotes assessed as increase in total bilirubin level at 20 mg/kg, po once daily for 5 consecutive days starting from day 10 post infection measured on day 127 post infection by biochemical analysis relative to control; assay type: toxicity, organism-based; conditions: in vivo
[23] = Hepatotoxicity in Balb/c mouse infected with Trypanosoma cruzi MHOM/Pe/2011/Arequipa DTU 5 trypomastigotes assessed as increase in alkaline phosphatase level at 20 mg/kg, po once daily for 5 consecutive days starting from day 10 post infection measured on day 16 post infection relative to control; assay type: toxicity, organism-based; conditions: in vivo
Trypanosoma cruzi [24] = test: as §1, with “assessed as parasite-free bone marrow at 20” for “assessed as reduction in Ig-G level in serum at 20”, “from day 75 post infection” for “from day 10 post infection”, “infection by PCR method” for “infection by ELISA”; assay type: functional
[25] = Nephrotoxicity in Balb/c mouse infected with Trypanosoma cruzi MHOM/Pe/2011/Arequipa DTU 5 trypomastigotes assessed as decrease in serum uric acid level at 20 mg/kg, po once daily for 5 consecutive days starting from day 75 post infection measured on day 127 post infection relative to control; assay type: toxicity, organism-based; design: scale not given: the % may be the effect or the level left; conditions: in vivo
[26] = Cardiotoxicity in Balb/c mouse infected with Trypanosoma cruzi MHOM/Pe/2011/Arequipa DTU 5 trypomastigotes assessed as decrease in serum LDH level at 20 mg/kg, po once daily for 5 consecutive days starting from day 75 post infection measured on day 81 post infection relative to control; assay type: toxicity, organism-based; design: scale not given: the % may be the effect or the level left; conditions: in vivo
[27] = as §3, with “16” for “127”, “infection” for “infection by biochemical analysis”; assay type: toxicity, organism-based; conditions: in vivo
[28] = as §3, with “change” for “increase”, “ALT” for “AST”, “GPT” for “GOT”, “(reference value: 49 U/L)” for “relative to control”; assay type: toxicity, organism-based; conditions: in vivo
[29] = Hepatotoxicity in Balb/c mouse infected with Trypanosoma cruzi MHOM/Pe/2011/Arequipa DTU 5 trypomastigotes assessed as change in ratio of serum ALT to GPT level at 20 mg/kg, po once daily for 5 consecutive days starting from day 75 post infection measured on day 127 post infection (reference value: 64 U/L); assay type: toxicity, organism-based; conditions: in vivo

Sequence of Superoxide dismutase [Cu-Zn] (P00441 whole entry): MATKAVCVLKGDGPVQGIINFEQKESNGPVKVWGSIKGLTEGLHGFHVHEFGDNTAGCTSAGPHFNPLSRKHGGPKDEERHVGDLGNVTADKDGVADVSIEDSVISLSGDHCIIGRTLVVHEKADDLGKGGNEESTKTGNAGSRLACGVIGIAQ

Row | SMILES | selectivity ratio [1] | selectivity ratio [2] | Activity [3] | Activity (Trypanosoma cruzi [5]) | Activity (Trypanosoma cruzi [6]) | Activity (Trypanosoma cruzi [7]) | inhibition (INH) (Trypanosoma cruzi [8]) | Activity [10] | Activity [11] | Activity [12] | Activity [13] | Activity [14] | Activity [15] | Activity [17] | Activity [18] | Activity [19] | Activity [20] | Activity [21] | Activity [22] | Activity [23] | further results
1 | Cl.Cl.Cl.Cl.Cl.Cl.c1ccc2nc(CNCCN(CCNCc3ccc4ccccc4n3)CCNCc3ccc4ccccc4n3)ccc2c1 | 112 | 707 | Non-Toxic | Active | Active | -73.6% | 56.7% | <= 10% | <= 10% | <= 10% | <= 10% | 4 mg/dL | <= 10% | 496 U/L | 538 U/L | 2761 U/L | <= 10% | <= 30% | <= 10% | <= 10% | Activity (Trypanosoma cruzi [4]): inactive; IC50 [9]: > 100 µM; Activity [16]: 535 U/L
2 | O=C(Cn1ccnc1[N+](=O)[O-])NCc1ccccc1 [BENZNIDAZOLE] |  |  |  | Active | Active | -35.4% | 22.4% | <= 10% | <= 10% | <= 10% | <= 10% | 4 mg/dL | <= 10% | 496 U/L | 538 U/L | 2761 U/L | > 40% | <= 20% | <= 10% | <= 20% | Activity (Trypanosoma cruzi [24]): 75%; Activity [25]: <= 10%; Activity [16]: 535 U/L; Activity [26]: <= 10%; Activity [27]: > 40%; Activity [28]: 49 U/L; Activity [29]: 64 U/L
3 | Cl.Cl.Cl.NCCN(CCN)CCNCc1ccc2c(c1)Cc1ccccc1-2 | 91.3 | 117 | Non-Toxic | Active | Active | 7.6% | 18.3% | <= 10% | <= 10% | <= 10% | <= 10% | 4 mg/dL | <= 10% | 496 U/L | 538 U/L | 2761 U/L | <= 30% | <= 30% | <= 10% | <= 20% | Activity (Trypanosoma cruzi [24]): 5.9%; Activity (Trypanosoma cruzi [4]): Active; IC50 [9]: > 100 µM; Activity [25]: <= 10%; Activity [26]: <= 10%; Activity [27]: > 40%; Activity [28]: 49 U/L; Activity [29]: 64 U/L
